Columns and labels:
[1] = system: apple flower-associated bacteria; assay: Susceptibility of apple flower-associated bacteria and biocontrol strains (panel); type: cell-based; conditions: streptomycin 20 μM
Experimental: Fifty flowers were collected from apple trees Malus×domestica ‘McIntosh’ from the Hamden, Conn. Lockwood farm in May 2016. The stigmas from all 50 flowers were removed, placed into 3 ml of 0.5×PBS, vortexed for 20 seconds, and sonicated for 5 min in a water bath sonicator to release the stigma associated bacteria. PBS buffer containing bacteria cells was serially diluted (10×, 100× and 1000×) and plated on LB agar medium and incubated at 28° C. for 48 h. On the basis of morphological colony characteristics, 200 bacterial colonies were shortlisted, sub-cultured, and identified using 16s rDNA sequencing using the forward primer 63f (5′-CAGGCCTAACACATGCAAGTC-3′) (SEQ ID NO: 10) and reverse primer 1387r (5′-GGG CGG WGT GTA CAA GGC-3′) (SEQ ID NO: 11). Fifteen different species were selected from the 200 bacterial cultures for testing against anti-acpP-CPP1 and streptomycin. Biological control agents Pseudomonas fluorescence A506, Bacillus amyloliquefaciens D747 and Pantoea agglomerans E325 were isolated from the original products on LB agar plate.
Compared to the traditional antibiotics that kill microbes with little selection, antisense antimicrobials inhibit bacterial growth through a sequence specific manner. […] Two hundred bacterial colonies were subcultured, and the identities of these colonies were determined by 16S rDNA sequencing. […]

acpP mRNA = assay: Northern blot detection of acpP expression in treated cells; type: cell-based, Erwinia amylovora; conditions: streptomycin 1 μM and 3 μM, 15.5 hrs post inoculation
Experimental: E. amylovora Ea110 was inoculated into LB broth at the final concentration of 5×10^5 CFU/ml, and was treated with various concentrations of PNA-CPP, water, or streptomycin. The inoculated cells were incubated at 28° C. with orbital shaking, and were collected for RNA isolation at 15.5 hrs post inoculation. Total bacterial RNA was isolated using the RNeasy Protect Bacteria Mini Kit (Qiagen, Valencia, Calif., USA) following the manufacturer's instructions. The quality and quantity of RNA was measured with a Nanodrop 2000c (Thermo Scientific, Wilmington, Del., USA).
The probe for acpP detection in Northern blots was synthesized from polymerase chain reaction (PCR) using acpP primers (forward primer 5′-TGGGCGTTAAGCAGGAAGAAG-3′ (SEQ ID NO: 5) and reverse primer 5′-TACGCCTGGTGACCATTGAT (SEQ ID NO: 6)). The PCR product was purified using a QIAquick PCR Purification kit (Qiagen) and labelled using a Biotin DecaLabel DNA Labeling Kit (Thermo Fisher Scientific, Grand Island, N.Y.) as per instruction of kit manual. Thirty micrograms of RNA was loaded for each sample and was separated on a formaldehyde denaturing gel in MOPS buffer. BrightStar®-Plus positively-charged nylon membranes (Thermo Fisher Scientific) were used for transfer of RNA from gel to membrane. […] The biotin signal was detected using a Biotin Chromogenic Detection Kit (Thermo Fisher Scientific).

Erwinia amylovora Ea110 = assay: Measurement of bacterial growth inhibition / MIC in LB broth; type: cell-based
Experimental: The highly-virulent strain E. amylovora Ea110, which was isolated from an apple orchard in Michigan (Zhao et al., 2005), was used in this study. Bacterial strains were stored at −80° C. in 15% glycerol and cultured in Luria-Bertani (LB) medium at 28° C. PNA-CPP was synthesized using Bts oligomerization method by Panagene Inc (Daejeon, Korea). Streptomycin and PNA-CPP were implemented at rates indicated in each assay.
Erwinia amylovora Ea110 was cultured in LB broth overnight and then cell concentrations were adjusted to 5×10^5 CFU/ml in LB broth. A total of 80 μl of the bacterial suspension in LB was added into each well of a 96 well plate. Lyophilized PNA-CPP was resuspended in water to a stock concentration of 100 μM and was serial diluted. Twenty μl of the diluted PNA-CPP solution was added into each well that contained 80 μl of the bacterial suspension in LB to make the final concentrations indicated in each assay. Water and streptomycin were added to the wells as negative and positive controls. The plate was incubated at 28° C. with orbital shaking in a BioTek Synergy H1 microplate reader (BioTek, Winooski, Vt., USA) for 20 hr. During the incubation, the OD 600 of each well was measured every 10 min. The lowest concentration of a PNA-CPP that prevented growth after 20 hr represented the MIC. Three replicates were included in each testing, and the experiment was repeated twice.

## [H]/N=C(/N)N[C@H]1[C@H](O)[C@@H](O)[C@H](O[C@@H]2O[C@@H](C)[C@](O)(C=O)[C@H]2O[C@@H]2O[C@@H](CO)[C@H](O)[C@@H](O)[C@@H]2NC)[C@@H](N/C(N)=N\[H])[C@@H]1O [streptomycin]
[1]
  susceptibility of strains tested: All strains tested are susceptible to streptomycin with the exception of P. fluorescens A506
acpP mRNA
  acpP mRNA abundance: did not affect
Erwinia amylovora Ea110; Erwinia amylovora, E. amylovora Ea110, LB broth, 28° C., 20 hr, read-out: minimal inhibitory concentration (MIC)
  MIC: 2 µM

## anti-acpP PNA: 10-nucleotide PNA oligomer 5′-ctcatactat-3′ (SEQ ID NO: 1), antisense to start codon region of acpP, no CPP (CTCATACTAT; all peptide nucleic acid (PNA))
Erwinia amylovora Ea110; LB broth, any concentration tested, compared to water
  growth inhibition of E. amylovora: did not display any growth inhibition
